In patent US20260200902A1, “CRYSTALLINE FORMS OF 7-CHLORO-2-(4-(3-METHOXYAZETIDIN-1-YL)CYCLOHEXYL)-2,4- DIMETHYL-N-((6-METHYL-4-(METHYLTHIO)-2-OXO-1,2-DIHYDROPYRIDIN-3-YL)METHYL)BENZO [D][1,3]DIOXOLE-5-CARBOXAMIDE” (Constellation Pharmaceuticals, Inc., priority 2019, published 2026):
Entries after “also recorded” stand apart in the source; their conditions may differ.

What was measured:
Type in all cases: physicochemical
[1] = Relative stability of crystalline forms (polymorph screening and competitive slurry experiments); conditions: Form 1 versus Form 2
Method: The amorphous form of Compound 1 samples with different purities, one with 95.2% purity (30 mg) and another with 97.6% purity (20 mg), were each suspended or dissolved in 10-30 vol of a given solvent at RT. After 5 m n equilibration at RT, all samples (solutions and suspensions) were heated to 50° C. for 10 minutes and the resulting samples were treated as follows: Suspensions were matured between 60 and 5 FC for 72 hrs (4 hrs at each temperature). Solutions were cooled from 50 to 5° C. at 0.1° C./min and maintained at 5° C. for 72 hrs. If no solid was obtained, the solutions were allowed to evaporate at RT. All the recovered solids were analyzed by XRPD and subsequently by the appropriate techniques. See Tables 1-3 for screening procedures and analytical results.

[2] = Gravimetric vapour sorption (GVS) analysis; conditions: for XRPD post GVS (solid form): after GVS analysis
[3] = Static stability storage at elevated RH (5 days), XRPD and HPLC; conditions: for Solid form by XRPD after storage: stored for 5 days at elevated RH conditions

SMILES | Relative stability of crystalline form [1] | Hygroscopicity by GVS analysis [2] | XRPD post GVS (solid form) [2] | Static stability, HPLC ([3]; 25° C./97% RH (5 days)) | Static stability, XRPD ([3]; 25° C./97% RH (5 days)) | Static stability, HPLC ([3]; 40° C./75% RH (5 days)) | Static stability, XRPD ([3]; 40° C./75% RH (5 days)) | Solid form by XRPD after storage [3]
COC1CN(C2CCC(C3(C)Oc4c(Cl)cc(C(=O)NCc5c(SC)cc(C)[nH]c5=O)c(C)c4O3)CC2)C1 (centres unmarked) [Form 1, 7-chloro-2-(4-(3-methoxyazetidin-1-yl)cyclohexyl)-2,4-dimethyl-N-((6-methyl-4-(methylthio)-2-oxo-1,2-dihydropyridin-3-yl)methyl)benzo[d][1,3]dioxole-5-carboxamide] | more stable than Form 2 | slightly hygroscopic | remained Form 1; also recorded: showed the material remained Pattern 1 | 96.8% | XRPD: Slight reduction in crystallinity,; also recorded: remained pattern 1 | 96.5% | XRPD: Slight reduction in crystallinity,; also recorded: remained pattern 1 | remained Form 1
COC1CN(C2CCC(C3(C)Oc4c(Cl)cc(C(=O)NCc5c(SC)cc(C)[nH]c5=O)c(C)c4O3)CC2)C1 (centres unmarked) [Form 2, 7-chloro-2-(4-(3-methoxyazetidin-1-yl)cyclohexyl)-2,4-dimethyl-N-((6-methyl-4-(methylthio)-2-oxo-1,2-dihydropyridin-3-yl)methyl)benzo[d][1,3]dioxole-5-carboxamide] | less stable crystalline form than Form 1 |  | became amorphous |  |  |  |  | became amorphous
